US20130165522A1, “GEL FORMULATIONS FOR THE TOPICAL USE OF 1-AMINO-ALKYLCYCLOHEXANE DERIVATIVES” (MERZ PHARMA GmbH & CO. KGaA, priority 2010, published 2013)

Tests used:
Propionibacterium acnes = assay: Antibacterial activity; assay type: cell-based
Staphylococcus aureus = assay: Antibacterial activity; assay type: cell-based

## CC1(C)CC(C)(C)CC(C)(N)C1 [neramexane, 1-amino-1,3,3,5,5-pentamethylcyclohexane]
Propionibacterium acnes
  antibacterial activity: exhibits antibacterial activity
Staphylococcus aureus
  antibacterial activity: exhibits antibacterial activity
